Experimental data taken from publication PMC5678437, “A new antagonist for CCR4 attenuates allergic lung inflammation in a mouse model of asthma” (Scientific Reports, 2017).

How the values were obtained:
[1] = biological target: T1, CXCR1 (Homo sapiens, UniProt P25024); experiment: Chemotaxis inhibition assay for receptor specificity, HEK293-CXCR1; format: cell-based; conditions: 0.2, 1, 5, 25 μM, 30 min pretreatment
T1 construct: expressed in transfected cells; host or cells: HEK293; plasmid gift of Dr. Philip M. Murphy (NIAID, NIH)
T1 sequence (P25024 1-350): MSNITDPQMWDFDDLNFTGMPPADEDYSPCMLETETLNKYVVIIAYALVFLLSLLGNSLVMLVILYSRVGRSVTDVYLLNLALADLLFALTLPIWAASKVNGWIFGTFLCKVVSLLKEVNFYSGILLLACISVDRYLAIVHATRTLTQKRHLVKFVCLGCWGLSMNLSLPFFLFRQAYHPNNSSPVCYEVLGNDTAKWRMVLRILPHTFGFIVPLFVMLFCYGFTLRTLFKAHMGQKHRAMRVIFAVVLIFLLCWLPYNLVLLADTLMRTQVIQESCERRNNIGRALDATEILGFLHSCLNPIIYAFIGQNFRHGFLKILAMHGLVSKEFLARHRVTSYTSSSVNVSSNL
Experimental: HEK293 cells were transfected with different chemokine receptors. The corresponding chemokines of different receptors were placed in the lower chambers. The transfected cells were pretreated with different concentrations of Compound 8a or 1‰ DMSO for 30 min at a density of 1 × 10^6 cells/ml and added to the upper chambers, the final concentration of the compound is: 0.2 μM, 1 μM, 5 μM, and 25 μM, respectively.

[2] = tested on: OVA-induced asthmatic mice; experiment: Airway hyperresponsiveness to aerosolized methacholine in OVA-induced asthmatic mice; format: in vivo, BALB/c mice; conditions: days 24-26, 24 h after final OVA challenge
Experimental: (§1) Male BALB/c 6 week old mice were purchased from the Experimental Animal Center of Zhejiang University. All mice were raised in a specific pathogen-free animal facility. All animal experiments were carried out according to the guidelines for the care and use of laboratory animals and were approved by the ethics committee of Zhejiang University and Peking University, China.
(§2) Mice were sensitized and challenged with chicken egg OVA (sigma-Aldrich, St Louis, MO, USA) as described in details previously. Briefly, after sensitized by intraperitoneal injection of 100 μl (80 μg) OVA in 100 μl alum (Pierce, Rockford, IL, USA) on days 0 and 14, mice were exposure to 1% OVA aerosols for 40 min on days 24–26. Control mice were injected intraperitoneally with saline and exposed to saline aerosols.
Compound 8a was dissolved in saline with DMSO (0.5%). Half an hour before each OVA challenge, the groups of mice treated with various doses of compound 8a (0.2, 1, 5 mg) inhaled aerosolized compound 8a for 45 min on days 24–26. Compound 8a aerosols were produced by using a Plexiglas chamber and ultrasonic nebulizer. While the budesonide (BUD) group were administered with 5 mg budesonide, and the vehicle group were treated with compound-dissolved vehicle. The Saline was treated as the control.
Twenty-four hours after the last challenge, mice were anesthetized and tracheotomized with a cannula, then ventilated at a fixed breathing rate. Once being stabilized, mice were challenged via the airways with saline or increasing concentrations of Mch (1, 2, 4, 8, 16 mg/ml) by nebulization. Airway resistance was measured by FinePointe Series RC Sites (Buxco Research System). Changes in airway resistance were calculated for each Mch concentration.

[3] = biological target: T2, CXCR3 (Homo sapiens, UniProt P49682); experiment: Chemotaxis assay for receptor specificity, HEK293-CXCR3; format: cell-based; conditions: compound as chemoattractant in lower chamber, 0.2, 1, 5, 25 μM
T2 construct: expressed in transfected cells; host or cells: HEK293; plasmid from Chinese National Human Genome Center
T2 sequence (P49682 1-415 isoform P49682-2): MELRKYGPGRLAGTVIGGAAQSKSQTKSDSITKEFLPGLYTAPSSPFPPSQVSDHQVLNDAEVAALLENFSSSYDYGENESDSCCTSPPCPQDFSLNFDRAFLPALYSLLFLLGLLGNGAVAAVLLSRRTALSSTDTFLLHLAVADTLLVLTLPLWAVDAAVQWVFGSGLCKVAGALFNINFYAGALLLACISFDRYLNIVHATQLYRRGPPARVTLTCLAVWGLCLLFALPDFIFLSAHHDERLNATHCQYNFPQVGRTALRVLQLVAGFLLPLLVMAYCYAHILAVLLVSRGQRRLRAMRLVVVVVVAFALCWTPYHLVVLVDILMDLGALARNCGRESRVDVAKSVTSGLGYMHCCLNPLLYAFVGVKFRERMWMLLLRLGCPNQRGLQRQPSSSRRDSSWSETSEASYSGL
Experimental: (§3) HEK293 cells were transfected with different chemokine receptors. Compound 8a with DMSO was diluted to 0.2 mM, 1 mM, 5 mM and 25 mM, and then we used RPMI 1640 medium containing 0.1% BSA for dilution. The final concentration is: 0.2 μM, 1 μM, 5 μM and 25 μM. DMSO was also diluted 1000-fold with 0.1% BSA RPMI 1640 medium. Chemokines was also diluted to an appropriate concentration. The dilutions of Compound 8a, 1‰ DMSO, the corresponding chemokines of different receptors and 0.1% BSA RPMI 1640 medium were placed in the lower chambers (27.5 μl/well). The transfected HEK293 cells were resuspended in the same medium at a density of 1 × 10^6 cells/ml and added to the upper chambers (55 μl/well).

[4] = tested on: OVA-induced asthmatic mice; experiment: Lung histology (H&E) inflammation score in OVA-induced asthmatic mice; format: in vivo, BALB/c mice; conditions: 5 mg inhaled aerosol; vs OVA mice treated with vehicle
Experimental: as §1, §2
Compound 8a was dissolved in saline with DMSO (0.5%). Half an hour before each OVA challenge, the groups of mice treated with various doses of compound 8a (0.2, 1, 5 mg) inhaled aerosolized compound 8a for 45 min on days 24–26. Compound 8a aerosols were produced by using a Plexiglas chamber and ultrasonic nebulizer. […]
After sacrificed, the lungs were fixed in formalin overnight. […] Inflammation was scored according to published guidelines. And PAS-stained goblet cells in airway epithelium were quantified as described previously.

[5] = biological target: T3, CCR1 (Homo sapiens, UniProt P32246); experiment: Chemotaxis assay for receptor specificity, HEK293-CCR1; format: cell-based; conditions: compound as chemoattractant in lower chamber, 0.2, 1, 5, 25 μM
T3 construct: expressed in transfected cells; host or cells: HEK293; plasmid gift of Dr. Philip M. Murphy (NIAID, NIH)
T3 sequence (P32246 1-355): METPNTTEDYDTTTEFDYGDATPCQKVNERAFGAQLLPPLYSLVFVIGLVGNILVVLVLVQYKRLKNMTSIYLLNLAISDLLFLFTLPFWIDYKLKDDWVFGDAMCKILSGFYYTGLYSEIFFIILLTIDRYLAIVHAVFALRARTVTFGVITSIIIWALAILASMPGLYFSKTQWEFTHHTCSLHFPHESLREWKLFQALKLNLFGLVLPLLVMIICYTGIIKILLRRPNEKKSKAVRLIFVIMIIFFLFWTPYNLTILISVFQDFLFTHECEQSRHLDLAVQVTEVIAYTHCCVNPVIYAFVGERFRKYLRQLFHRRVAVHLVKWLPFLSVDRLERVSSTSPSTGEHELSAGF
Experimental: as §3

[6] = tested on: IL-4; experiment: IL-4 in lung homogenate by ELISA in OVA-induced asthmatic mice; format: in vivo, BALB/c mice; conditions: 5 mg inhaled aerosol; after OVA challenge
Experimental: as §1, §2
Compound 8a was dissolved in saline with DMSO (0.5%). Half an hour before each OVA challenge, the groups of mice treated with various doses of compound 8a (0.2, 1, 5 mg) inhaled aerosolized compound 8a for 45 min on days 24–26. […]
Twenty-four hours after the last challenge, lungs were removed from control or asthmatic mice, and they were cut into pieces and homogenized in 500 μl PBS, centrifuged (2000 rpm, 10 min) and the supernatant collected. The concentration of IL-4 in lungs were determined by ELISA kit (Sensitivity: 2 pg/ml, R&D Systems, Minneap-olis, MN, USA) following the manufacturer’s protocol.

## O=C(C1CCCCN1)N1CCN(c2nc(Cl)cc(NCc3ccc(Cl)cc3Cl)n2)CC1 (centres unmarked) [compound 8a, {4-[4-Chloro-6-(2,4-dichloro-benzylamino)-pyrimidin-2-yl]-piperazin-1-yl}-piperidin-2-yl-methanone]
[1]
  inhibition of chemotaxis of HEK293-CXCR1 to its ligand: few influence
[2]; 0.2 mg inhaled aerosol
  AHR to methacholine compared with asthmatic mice treated with vehicle: significantly lower
[2]; 1 mg inhaled aerosol
  AHR to methacholine compared with asthmatic mice treated with vehicle: significantly lower
[2]; 5 mg inhaled aerosol
  AHR to methacholine compared with asthmatic mice treated with vehicle: significantly lower
[3]
  chemotaxis effect of the compound on HEK293-CXCR3: didn’t exert chemotaxis effects
[4]
  peribronchial and perivascular inflammation (H&E histology): comparable inhibitory effect
[5]
  chemotaxis effect of the compound on HEK293-CCR1: didn’t exert chemotaxis effects
[6]
  expression of IL-4 in lungs (ELISA): notably decreased
